This is an account of results in the NIST ThermoML archive (doi:10.1016/j.jct.2013.02.006).

± gives the expanded uncertainty stated by the source.

The nature of this data set: activity coefficient (dimensionless); of the first substance listed, at infinite dilution; xn = mol fraction of the nth substance listed. Particulars: 101 kPa, Liquid, Chromatography, x1 = 0.

As to `C=CCCCCC` [1-heptene] + CN1CCCC1=O, the activity coefficient by setting is: (333.2 K) 6.37 ± 0.43; (348.2 K) 6.24 ± 0.43; (363.2 K) 6.28 ± 0.43.

In the case of `C=CCCCCC` [1-heptene] + O=CN1CCOCC1, the activity coefficient (333.2 K) came to 16 ± 1.1, the activity coefficient (348.2 K) was found to be 14.6 ± 1 and the activity coefficient (363.2 K) stood at 13.3 ± 0.91.

On to `C#CCCCCC` [1-heptyne] + CN1CCCC1=O, for which the activity coefficient is, setting by setting: (333.2 K) 1.72 ± 0.12; (348.2 K) 1.79 ± 0.12; (363.2 K) 1.92 ± 0.13.

For `C#CCCCCC` [1-heptyne] + O=CN1CCOCC1, the activity coefficient (333.2 K) is 3.85 ± 0.26, the activity coefficient (348.2 K) came out at 3.83 ± 0.26 and the activity coefficient (363.2 K) was 3.68 ± 0.25.

For `C#CCCCC` [1-hexyne] + CN1CCCC1=O, the activity coefficient is, setting by setting: (333.2 K) 1.47 ± 0.1; (348.2 K) 1.57 ± 0.1; (363.2 K) 1.77 ± 0.12.

Take `C#CCCCC` [1-hexyne] + O=CN1CCOCC1: the activity coefficient runs as follows: (333.2 K) 3.25 ± 0.22; (348.2 K) 3.19 ± 0.22; (363.2 K) 2.78 ± 0.19.

Consider `C#CCCCCCC` [1-octyne] + CN1CCCC1=O, for which the activity coefficient runs as follows: (333.2 K) 2.07 ± 0.14; (348.2 K) 2.15 ± 0.15; (363.2 K) 2.16 ± 0.15.

In the case of `C#CCCCCCC` [1-octyne] + O=CN1CCOCC1, the activity coefficient was 5.15 ± 0.35 (333.2 K), 4.9 ± 0.3 (348.2 K) and 4.65 ± 0.32 (363.2 K).

For `C=CCCC` [1-pentene] + CN1CCCC1=O, the activity coefficient turned out to be 4.75 ± 0.32 (333.2 K), 4.84 ± 0.33 (348.2 K) and 4.99 ± 0.34 (363.2 K).

For `C=CCCC` [1-pentene] + O=CN1CCOCC1, the activity coefficient was determined as 9.97 ± 0.68 (333.2 K), 9.43 ± 0.64 (348.2 K) and 8.61 ± 0.59 (363.2 K).

For `C#CCCC` [1-pentyne] + CN1CCCC1=O, the activity coefficient (333.2 K) was determined as 1.27 ± 0.08, the activity coefficient (348.2 K) was 1.41 ± 0.09 and the activity coefficient (363.2 K) was found to be 1.63 ± 0.11.

As for `C#CCCC` [1-pentyne] + O=CN1CCOCC1, the activity coefficient (333.2 K) came to 2.56 ± 0.17, the activity coefficient (348.2 K) is 2.58 ± 0.18 and the activity coefficient (363.2 K) was 2.38 ± 0.16.

As for `c1ccccc1` [benzene] + CN1CCCC1=O, the activity coefficient reads like this: (333.2 K) 1.1 ± 0.07; (348.2 K) 1.14 ± 0.07; (363.2 K) 1.1 ± 0.07.

In the case of `c1ccccc1` [benzene] + O=CN1CCOCC1, the activity coefficient by setting is: (333.2 K) 1.91 ± 0.13; (348.2 K) 1.82 ± 0.12; (363.2 K) 1.81 ± 0.12.

As for `C1CCCCCC1` [cycloheptane] + CN1CCCC1=O, the activity coefficient was 7.51 ± 0.51 (333.2 K), 6.71 ± 0.46 (348.2 K) and 6.8 ± 0.46 (363.2 K).

For `C1CCCCCC1` [cycloheptane] + O=CN1CCOCC1, the activity coefficient worked out at 15.4 ± 1.1 (333.2 K), 12.7 ± 0.87 (348.2 K) and 10.5 ± 0.71 (363.2 K).

As for `C1CCCCC1` [cyclohexane] + CN1CCCC1=O, the activity coefficient runs as follows: (333.2 K) 6.32 ± 0.43; (348.2 K) 5.83 ± 0.4; (363.2 K) 5.41 ± 0.37.

Turning to `C1CCCCC1` [cyclohexane] + O=CN1CCOCC1, the activity coefficient amounted to 13.8 ± 0.94 (333.2 K), 12.3 ± 0.84 (348.2 K) and 11 ± 1 (363.2 K).

As to `C1CCCCCCC1` [cyclooctane] + CN1CCCC1=O, the activity coefficient by setting is: (333.2 K) 8.23 ± 0.56; (348.2 K) 7.62 ± 0.52; (363.2 K) 6.06 ± 0.41.

As for `C1CCCCCCC1` [cyclooctane] + O=CN1CCOCC1, the activity coefficient reads like this: (333.2 K) 17.7 ± 1.2; (348.2 K) 14.5 ± 0.99; (363.2 K) 11.9 ± 0.81.

As to `C1CCCC1` [cyclopentane] + CN1CCCC1=O, the activity coefficient worked out at 5.16 ± 0.35 (333.2 K), 4.68 ± 0.32 (348.2 K) and 4.55 ± 0.31 (363.2 K).

Turning to `C1CCCC1` [cyclopentane] + O=CN1CCOCC1, the activity coefficient reads like this: (333.2 K) 10.2 ± 0.7; (348.2 K) 8.75 ± 0.6; (363.2 K) 7.59 ± 0.52.

For `CCO` [ethanol] + CN1CCCC1=O, the activity coefficient reads like this: (333.2 K) 0.606 ± 0.042; (348.2 K) 0.605 ± 0.042; (363.2 K) 0.618 ± 0.043.

For the molecule `CCO` [ethanol] + O=CN1CCOCC1, the activity coefficient is, setting by setting: (333.2 K) 1.2 ± 0.077; (348.2 K) 1.14 ± 0.073; (363.2 K) 0.914 ± 0.058.

As for `CCc1ccccc1` [ethylbenzene] + CN1CCCC1=O, the activity coefficient runs as follows: (333.2 K) 1.73 ± 0.12; (348.2 K) 1.83 ± 0.12; (363.2 K) 1.61 ± 0.11.

For the molecule `CCc1ccccc1` [ethylbenzene] + O=CN1CCOCC1, the activity coefficient by setting is: (333.2 K) 3.46 ± 0.24; (348.2 K) 3.41 ± 0.23; (363.2 K) 3.21 ± 0.22.

As for `CCCCCCC` [heptane] + CN1CCCC1=O, the activity coefficient worked out at 11.4 ± 0.78 (333.2 K), 10.7 ± 0.73 (348.2 K) and 10 ± 0.68 (363.2 K).

On to `CCCCCCC` [heptane] + O=CN1CCOCC1, for which the activity coefficient (333.2 K) came out at 31.3 ± 2.1, the activity coefficient (348.2 K) stood at 27.5 ± 1.9 and the activity coefficient (363.2 K) is 25.9 ± 1.8.

Regarding `C=CCCCC` [hex-1-ene] + CN1CCCC1=O, the activity coefficient came to 5.51 ± 0.38 (333.2 K), 5.44 ± 0.37 (348.2 K) and 5.57 ± 0.38 (363.2 K).

For `C=CCCCC` [hex-1-ene] + O=CN1CCOCC1, the activity coefficient is, setting by setting: (333.2 K) 13.5 ± 0.92; (348.2 K) 11.6 ± 0.79; (363.2 K) 10.5 ± 0.72.

With `CCCCCC` [hexane] + CN1CCCC1=O, the activity coefficient is 9.51 ± 0.65 (333.2 K), 9.19 ± 0.63 (348.2 K) and 8.51 ± 0.58 (363.2 K).

With `CCCCCC` [hexane] + O=CN1CCOCC1, the activity coefficient is 24.6 ± 1.7 (333.2 K), 21.5 ± 1.5 (348.2 K) and 19.6 ± 1.3 (363.2 K).

As to `CO` [methanol] + CN1CCCC1=O, the activity coefficient (333.2 K) is 0.482 ± 0.037, the activity coefficient (348.2 K) was found to be 0.556 ± 0.04 and the activity coefficient (363.2 K) worked out at 0.511 ± 0.038.

`CO` [methanol] + O=CN1CCOCC1: the activity coefficient by setting is: (333.2 K) 0.852 ± 0.055; (348.2 K) 0.847 ± 0.054; (363.2 K) 0.706 ± 0.047.

On to `CCCCCCCCC` [nonane] + CN1CCCC1=O, for which the activity coefficient was 16.7 ± 1.1 (333.2 K), 14.9 ± 1 (348.2 K) and 12 ± 0.82 (363.2 K).

On to `CCCCCCCCC` [nonane] + O=CN1CCOCC1, for which the activity coefficient is, setting by setting: (333.2 K) 50.2 ± 3.4; (348.2 K) 43.5 ± 3; (363.2 K) 38.2 ± 2.6.

As for `C=CCCCCCC` [oct-1-ene] + CN1CCCC1=O, the activity coefficient by setting is: (333.2 K) 8.39 ± 0.57; (348.2 K) 7.6 ± 0.52; (363.2 K) 6.7 ± 0.46.

Consider `C=CCCCCCC` [oct-1-ene] + O=CN1CCOCC1, for which the activity coefficient is, setting by setting: (333.2 K) 20.5 ± 1.4; (348.2 K) 18.4 ± 1.3; (363.2 K) 16.7 ± 1.1.

On to `CCCCCCCC` [octane] + CN1CCCC1=O, for which the activity coefficient came to 13.8 ± 0.94 (333.2 K), 13.2 ± 0.9 (348.2 K) and 10.6 ± 0.72 (363.2 K).

For the molecule `CCCCCCCC` [octane] + O=CN1CCOCC1, the activity coefficient came to 39.5 ± 2.7 (333.2 K), 34.3 ± 2.4 (348.2 K) and 30.6 ± 2.1 (363.2 K).

With `CCCCC` [pentane] + CN1CCCC1=O, the activity coefficient amounted to 8.32 ± 0.57 (333.2 K), 8.11 ± 0.55 (348.2 K) and 7.54 ± 0.51 (363.2 K).

For `CCCCC` [pentane] + O=CN1CCOCC1, the activity coefficient is, setting by setting: (333.2 K) 19.2 ± 1.3; (348.2 K) 17.3 ± 1.2; (363.2 K) 15.3 ± 1.

As for `CCCO` [propan-1-ol] + CN1CCCC1=O, the activity coefficient runs as follows: (333.2 K) 0.537 ± 0.039; (348.2 K) 0.552 ± 0.04; (363.2 K) 0.548 ± 0.04.

Turning to `CCCO` [propan-1-ol] + O=CN1CCOCC1, the activity coefficient was 1.25 ± 0.08 (333.2 K), 1.15 ± 0.073 (348.2 K) and 0.913 ± 0.058 (363.2 K).

Take `CC(C)O` [propan-2-ol] + CN1CCCC1=O: the activity coefficient is, setting by setting: (333.2 K) 0.627 ± 0.043; (348.2 K) 0.639 ± 0.044; (363.2 K) 0.632 ± 0.044.

On to `CC(C)O` [propan-2-ol] + O=CN1CCOCC1, for which the activity coefficient stood at 1.46 ± 0.1 (333.2 K), 1.29 ± 0.083 (348.2 K) and 0.933 ± 0.059 (363.2 K).

For the molecule `Cc1ccccc1` [toluene] + CN1CCCC1=O, the activity coefficient runs as follows: (333.2 K) 1.39 ± 0.09; (348.2 K) 1.35 ± 0.09; (363.2 K) 1.42 ± 0.09.

Consider `Cc1ccccc1` [toluene] + O=CN1CCOCC1, for which the activity coefficient came out at 2.71 ± 0.18 (333.2 K), 4.04 ± 1.5 (348.2 K) and 2.55 ± 0.17 (363.2 K).
